This is an account of results in patent US8497278B2, “Imidazo[1,2-a]pyridine compounds” (priority 2008, dated 2013).

Some results are limits rather than exact numbers.

Experiment [1] has as its target T1, α1 subtype containing GABA-A receptors (Homo sapiens, UniProt P14867+P18507).
T1 construct: expressed in transfected cells; host or cells: Xenopus laevis oocytes, cRNA injected
Nature of the experiment: Two-electrode voltage clamp electrophysiology in Xenopus oocytes, potentiation of GABA EC20 response, α1. It is filed as cell-based. To be noted: 100 nM compound; for activation at 0.1 µM: read-out: Percentage of potentiation alpha1. The essentials: (§1)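 Test compounds (100 nM) were assessed for enhancement of a 60 μM (EC20) GABA current in two-electrode-clamped oocytes (−80 mV, ND96 pH 7.5) injected with human αx (1, 2, 3 or 5), β3 and γ2L cRNA. Each oocyte received a 1 μM chlordiazepoxide standard first and was excluded if expression or γ2L incorporation was insufficient.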

The subject of experiment [2] is central benzodiazepine receptors. Nature of the experiment: Central benzodiazepine receptor binding (test of Speth et al.). The note with it: 1000 nM of the compound. The essentials:
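Values are percent inhibition of central benzodiazepine receptor binding at 1000 nM compound (initial single-point screen at 1.0E-09, 1.0E-07 and 1.0E-05 M). Speth et al. binding test; nonspecific binding defined with excess unlabelled ligand and subtracted from total.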

Experiment [3] has as its target T2, α2 subtype containing GABA-A receptors (Homo sapiens, UniProt P18507+P47869).
T2 construct: expressed in transfected cells; host or cells: Xenopus laevis oocytes, cRNA injected
Kind of experiment: Two-electrode voltage clamp electrophysiology in Xenopus oocytes, potentiation of GABA EC20 response, α2. It is filed as cell-based. To be noted: 100 nM compound; for activation at 0.1 µM: read-out: Percentage of potentiation alpha2. Put shortly: as §1

T2 sequence (P47869 29-451): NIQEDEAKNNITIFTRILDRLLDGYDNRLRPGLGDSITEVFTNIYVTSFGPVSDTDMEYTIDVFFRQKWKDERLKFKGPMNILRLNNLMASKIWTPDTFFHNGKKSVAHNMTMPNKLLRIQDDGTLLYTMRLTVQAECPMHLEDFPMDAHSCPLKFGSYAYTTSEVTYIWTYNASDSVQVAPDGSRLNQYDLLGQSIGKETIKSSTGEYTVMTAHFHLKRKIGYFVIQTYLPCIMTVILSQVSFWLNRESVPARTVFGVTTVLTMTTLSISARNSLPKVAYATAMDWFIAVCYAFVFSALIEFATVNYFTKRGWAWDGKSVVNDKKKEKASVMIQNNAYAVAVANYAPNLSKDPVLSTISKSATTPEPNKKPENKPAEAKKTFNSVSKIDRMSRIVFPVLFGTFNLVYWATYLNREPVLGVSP
T2 sequence (P28472 26-473 partner): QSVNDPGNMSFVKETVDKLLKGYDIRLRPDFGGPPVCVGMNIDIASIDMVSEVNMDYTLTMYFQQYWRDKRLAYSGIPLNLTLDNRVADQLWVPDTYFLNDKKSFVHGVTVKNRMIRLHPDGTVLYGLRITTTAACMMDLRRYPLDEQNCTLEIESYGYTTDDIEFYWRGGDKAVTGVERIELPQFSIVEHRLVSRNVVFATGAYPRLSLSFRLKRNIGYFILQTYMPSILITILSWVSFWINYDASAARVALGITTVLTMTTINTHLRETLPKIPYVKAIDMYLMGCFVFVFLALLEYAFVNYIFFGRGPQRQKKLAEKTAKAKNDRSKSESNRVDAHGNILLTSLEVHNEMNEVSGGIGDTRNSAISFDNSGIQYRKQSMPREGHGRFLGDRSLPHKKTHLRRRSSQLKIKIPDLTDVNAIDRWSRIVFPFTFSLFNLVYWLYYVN
T2 sequence (P18507 40-475): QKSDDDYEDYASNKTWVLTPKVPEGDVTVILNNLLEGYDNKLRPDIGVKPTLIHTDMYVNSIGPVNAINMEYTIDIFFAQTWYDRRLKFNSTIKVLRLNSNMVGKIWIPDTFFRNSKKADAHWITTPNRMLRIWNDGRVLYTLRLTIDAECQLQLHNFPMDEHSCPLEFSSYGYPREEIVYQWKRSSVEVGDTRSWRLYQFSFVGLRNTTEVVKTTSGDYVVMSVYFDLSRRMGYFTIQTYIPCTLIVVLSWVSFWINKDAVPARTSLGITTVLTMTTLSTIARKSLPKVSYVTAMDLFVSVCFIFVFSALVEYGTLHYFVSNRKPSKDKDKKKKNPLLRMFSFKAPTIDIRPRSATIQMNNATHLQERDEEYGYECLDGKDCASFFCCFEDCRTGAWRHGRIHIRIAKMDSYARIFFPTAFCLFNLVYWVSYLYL
T1 sequence (P14867 28-456): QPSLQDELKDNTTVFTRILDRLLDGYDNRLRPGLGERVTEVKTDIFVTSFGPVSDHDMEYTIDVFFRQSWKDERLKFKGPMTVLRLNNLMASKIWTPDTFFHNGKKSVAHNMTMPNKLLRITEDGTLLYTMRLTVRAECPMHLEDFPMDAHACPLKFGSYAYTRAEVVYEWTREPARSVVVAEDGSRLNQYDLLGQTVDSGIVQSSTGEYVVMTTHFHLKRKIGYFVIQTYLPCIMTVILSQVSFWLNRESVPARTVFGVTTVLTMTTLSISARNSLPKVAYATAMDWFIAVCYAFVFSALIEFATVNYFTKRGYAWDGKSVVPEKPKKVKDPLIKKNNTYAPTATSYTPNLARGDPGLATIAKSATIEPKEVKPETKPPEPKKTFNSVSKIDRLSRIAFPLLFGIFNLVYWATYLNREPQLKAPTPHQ
T1 sequence (P28472 26-473 partner): as the sequence (P28472 26-473 partner) above
T1 sequence (P18507 40-475): as the sequence (P18507 40-475) above

`CCOc1ccn(Cc2c(-c3ccc(Cl)cc3)nc3ccccn23)c(=O)n1` [Compound 137, 1-((2-(4-chlorophenyl)imidazo[1,2-a]pyridin-3-yl)methyl)-4-ethoxypyrimidin-2(1H)-one]: the activation at 0.1 µM in experiment [1] and in experiment [3] was 10 to 50% throughout. Besides, the “% Inhibition at 1000 nM for CBZD” value in experiment [2] is “++ (percentage of inhibition of central BZD site binding is greater than 80% in the presence of 1000 nM of the compound)”.

Consider `O=c1nc(-n2cncn2)ccn1Cc1c(-c2ccc(Cl)cc2)nc2ccccn12` [Compound 138, 1-((2-(4-chlorophenyl)imidazo[1,2-a]pyridin-3-yl)methyl)-4-(1H-1,2,4-triazol-1-yl)pyrimidin-2(1H)-one], for which the activation at 0.1 µM in experiment [1] and in experiment [3] was 10 to 50% throughout. Also, the “% Inhibition at 1000 nM for CBZD” value in experiment [2] is given as “++ (percentage of inhibition of central BZD site binding is greater than 80% in the presence of 1000 nM of the compound)”.

Consider `Cc1ccc(-c2nc3ccc(C)cn3c2CNc2nccs2)cc1` [Compound 150, N-((6-methyl-2-p-tolylH-imidazo[1,2-a]pyridin-3-yl)methyl)thiazole-2-amine], for which the “Percentage of potentiation alpha1” value in experiment [1] was 0 (percentage of potentiation is between about 10% to about −10%). Besides, the “% Inhibition at 1000 nM for CBZD” value in experiment [2] is reported as “++ (percentage of inhibition of central BZD site binding is greater than 80% in the presence of 1000 nM of the compound)”. In addition, in experiment [3], the “Percentage of potentiation alpha2” value was “+ (percentage of potentiation is greater than or equal to 10% but less than 50% in the presence of 100 nM of the compound)”.

In the case of `Cc1cc(Cl)nc(NCc2c(-c3ccc(Cl)cc3)nc3ccccn23)n1` [Compound 159, 4-chloro-N-((2-(4-chlorophenyl)imidazo[1,2-a]pyridin-3-yl)methyl)-6-methylpyrimidin-2-amine], the activation at 0.1 µM in experiment [1] and in experiment [3] was 10 to 50% in each case. Moreover, in experiment [2], the “% Inhibition at 1000 nM for CBZD” value is listed as “++ (percentage of inhibition of central BZD site binding is greater than 80% in the presence of 1000 nM of the compound)”.

Consider `Cc1ccc2nc(-c3ccc(F)cc3)c(CNc3nc(C)cc(Cl)n3)n2c1` [Compound 160, 4-chloro-N-((2-(4-fluorophenyl)-6-methylimidazo[1,2-a]pyridin-3-yl)methyl)-6-methylpyrimidin-2-amine], for which the activation at 0.1 µM in experiment [1] and in experiment [3] was 10 to 50% each time. In addition, the “% Inhibition at 1000 nM for CBZD” value in experiment [2] is “++ (percentage of inhibition of central BZD site binding is greater than 80% in the presence of 1000 nM of the compound)”.

For the molecule `COc1ccc(NCc2c(-c3ccccc3)nc3ccc(Cl)cn23)nn1` [Compound 165, N-((6-chloro-2-phenylimidazo[1,2-a]pyridin-3-yl)methyl)-6-methoxypyridazin-3-amine], the activation at 0.1 µM in experiment [1] and in experiment [3] was 10 to 50% throughout. Further, the “% Inhibition at 1000 nM for CBZD” value in experiment [2] was “++ (percentage of inhibition of central BZD site binding is greater than 80% in the presence of 1000 nM of the compound)”.

Regarding `Cc1ccc(-c2nc3ccc(C)cn3c2CSc2nnc(C)s2)cc1` [Compound 179, 6-Methyl-3-(5-methyl-[1,3,4]thiadiazol-2-ylsulfanylmethyl)-2-p-tolyl-imidazo[1,2-a]pyridine], the activation at 0.1 µM in experiment [1] and in experiment [3] was -10 to 10% in each case. Further, the “% Inhibition at 1000 nM for CBZD” value in experiment [2] is “++ (percentage of inhibition of central BZD site binding is greater than 80% in the presence of 1000 nM of the compound)”.

Regarding `CN1CC[C@H](Oc2ccnc(NCc3c(-c4ccc(F)cc4)nc4ccc(Cl)cn34)n2)C1` [Compound 184, (S)—N-((6-chloro-2-(4-fluorophenyl)imidazo[1,2-a]pyridin-3-yl)methyl)-4-(1-methylpyrrolidin-3-yloxy)pyrimidin-2-amine], the activation at 0.1 µM in experiment [1] and in experiment [3] was 10 to 50% in each case. Moreover, in experiment [2], the “% Inhibition at 1000 nM for CBZD” value is on record as “++ (percentage of inhibition of central BZD site binding is greater than 80% in the presence of 1000 nM of the compound)”.

`CC1(O)CCN(c2ccnc(NCc3c(-c4ccccc4)nc4ccc(Cl)cn34)n2)CC1` [Compound 187, 1-(2-((6-chloro-2-phenylimidazo[1,2-a]pyridin-3-yl)methylamino)pyrimidin-4-yl)-4-methylpiperidin-4-ol]: the activation at 0.1 µM in experiment [1] is at most -10%; in experiment [3], -10 to 10%. Further, in experiment [2], the “% Inhibition at 1000 nM for CBZD” value was “++ (percentage of inhibition of central BZD site binding is greater than 80% in the presence of 1000 nM of the compound)”.

`OC[C@H]1CCCN1c1ccnc(NCc2c(-c3ccccc3)nc3ccc(Cl)cn23)n1` [Compound 188, (R)-(1-(2-((6-chloro-2-phenylimidazo[1,2-a]pyridin-3-yl)methylamino)pyrimidin-4-yl)pyrrolidin-2-yl)methanol]: the activation at 0.1 µM in experiment [1] and in experiment [3] was at least 50% in each case. Further, in experiment [2], the “% Inhibition at 1000 nM for CBZD” value is “++ (percentage of inhibition of central BZD site binding is greater than 80% in the presence of 1000 nM of the compound)”.

Take `OC1CCN(c2ccnc(NCc3c(-c4ccc(F)cc4)nc4ccc(Cl)cn34)n2)C1` (stereo not drawn) [Compound 189, 1-(2-((6-chloro-2-(4-fluorophenyl)imidazo[1,2-a]pyridin-3-yl)methylamino)pyrimidin-4-yl)pyrrolidin-3-ol]: the activation at 0.1 µM in experiment [1] and in experiment [3] was at least 50% throughout. In experiment [2], the “% Inhibition at 1000 nM for CBZD” value is listed as “++ (percentage of inhibition of central BZD site binding is greater than 80% in the presence of 1000 nM of the compound)”.

As to `OC1CCN(c2cncc(Cc3c(-c4ccc(Cl)cc4)nc4ccccn34)n2)C1` (stereo not drawn) [Compound 191, 1-(6-((2-(4-chlorophenyl)imidazo[1,2-a]pyridin-3-yl)methyl)pyrazin-2-yl)pyrrolidin-3-ol], the activation at 0.1 µM in experiment [1] and in experiment [3] was 10 to 50% throughout. Further, in experiment [2], the “% Inhibition at 1000 nM for CBZD” value is “++ (percentage of inhibition of central BZD site binding is greater than 80% in the presence of 1000 nM of the compound)”.

As for `CN(CCO)c1cncc(Cc2c(-c3ccc(Cl)cc3)nc3ccccn23)n1` [Compound 192, 2-((6-((2-(4-chlorophenyl)imidazo[1,2-a]pyridin-3-yl)methyl)pyrazin-2-yl)(methyl)amino)ethanol], the activation at 0.1 µM in experiment [1] and in experiment [3] was 10 to 50% in each case. Also, the “% Inhibition at 1000 nM for CBZD” value in experiment [2] is given as “++ (percentage of inhibition of central BZD site binding is greater than 80% in the presence of 1000 nM of the compound)”.

In the case of `CNNc1cncc(Cc2c(-c3ccc(Cl)cc3)nc3ccccn23)n1` [Compound 193, 2-(4-chlorophenyl)-3-((6-(2-methylhydrazinyl)pyrazin-2-yl)methyl)imidazo[1,2-a]pyridine], the activation at 0.1 µM in experiment [1] and in experiment [3] was 10 to 50% in each case. Also, in experiment [2], the “% Inhibition at 1000 nM for CBZD” value is “++ (percentage of inhibition of central BZD site binding is greater than 80% in the presence of 1000 nM of the compound)”.

As to `Fc1ccc(-c2nc3ccc(Cl)cn3c2CNc2nccc(C3CCCN3)n2)cc1` (stereo not drawn) [Compound 195], the activation at 0.1 µM in experiment [1] and in experiment [3] was at least 50% each time. The “% Inhibition at 1000 nM for CBZD” value in experiment [2] is recorded as “++ (percentage of inhibition of central BZD site binding is greater than 80% in the presence of 1000 nM of the compound)”.
